Results on 14 compounds are retold here after patent US6256527A, “Method for determining oxygen concentration” (Nycomed Imaging AS, priority 1995, dated 2001).

Common to all, as to assay type: physicochemical
Series [1] can be described thus: DNP (Overhauser) enhancement and DNP-curve relaxivity at infinite concentration and power. Conditions: for A. (enhancement at infinite concentration and power): water. The text has this: The calibration data are generated by determining Overhauser enhancement values for the radical in the selected body fluid, at the selected temperature and at a range of oxygen (and preferably also radical) concentrations. The intrinsic esr relaxation times for the radical can be determined, under the same conditions, using a conventional esr spectrometer equipped with a temperature controller, with oxygen concentration being determined using the method of Ravin et al J. Appl. Physiol. 18:784-790(1964), a method known to produce accurate and reproducible results.
(§1) The following four water soluble, single ESR line trityls were investigated by NMRD, Dynamic Nuclear Polarisation (DNP) and ESR (Examples 1-4).
(§2) The relaxivity and DNP enhancement data were measured in water, plasma and blood at 23° C. and 37° C. The results are set out in Tables 1 and 2.

Series [2] is described as follows: Relaxivity from NMRD profiles in water, plasma and blood. Conditions: for Relaxivity: water. The protocol: as §1, §2
Series [3] in a line: Electron spin relaxation rates (radical concentration dependent) from CW ESR spectra and DNP data. The protocol:
as §1
Electron spin relaxation rates were measured by analysis of CW ESR spectra and DNP data at 23° C. and 37° C. in water, isotonic saline, plasma and blood for the deuterated hydroxy trityl and in water and isotonic saline for the perdeuterated and symmetric trityl.

Series [4] is described as follows: ESR line widths of nitroxides in degassed benzene. The source says:
The ESR-spectral properties of a series of partially and fully deuterated nitroxides (compounds 3b-d) also useful in the method of the invention have been investigated. These radicals are derived from 2,5-di-t-butyl-3,4-dimethoxycarbonyl-pyrryloxyl (Compound 3a) and were investigated alongside Tempone (4-oxo-2,2,6,6-tetramethyl-piperidine-1-oxyl, 1) and CTPO (3-carbamoyl-2,2,5,5-tetramethyl-pyrroline-1-yloxyl, 2a) which are typical examples of nitroxides frequently used for imaging purposes.
Instrumentation. The ESR-spectra were recorded by the Upgrade Version ESP 3220-200SH of a Bruker ER-200D SRC instrument at 22°. The radical concentration was in the range 0.1-0.2 mM and the modulation amplitude was 10 mG. The microwave power was well below saturation. NMR-spectra were recorded on a Varian XL-300 spectrometer. Mass spectra were recorded on a VG Quattor II instrument equipped with ESPC electrospray. GLC analyses were performed on a HP 5830 ser II instrument, equipped with a fused-silica column (30 m, 0.25 μm, HP-1701). TLC analyses and column chromotographic separations were performed on Silica Gel 60, using heptane/ether as the eluent.
Preparation of pyrryloxyl radicals. To a degassed solution of 2 mg of the hydroxylamine 7a-7d in 2 ml of benzene was added ca. 10 mg NiOOH. After 5 min the suspension was filtered and the pale green blue solution was diluted with degassed benzene in order to obtain a solution suitable for ESR.
ESR-measurements. Summarised in Table 5 are the ESR line widths for the nitroxides discussed above. […] Perdeuteration results in a reduction of the line width by a factor of 2.2 for 1 and of 2.5 for 2b. […] The spin density distributions, nitrogen coupling constants and intrinsic line widths for 3d are compared in Table 6 to other nitroxides.

The nature of series [5]: Oxygen sensitivity at 260 MHz by ESR and DNP in water and blood. Conditions: for Lorentzian line broadening by oxygen: 260 MHz. The protocol: The oxygen sensitivity of the deuterated hydroxy trityl was examined at 260 MHz in water and blood at 23° C. and 37° C. by ESR and DNP. The desired oxygen partial pressures were obtained in a simple shaking tonometer. The sample of 1-2 ml volume was shaken with a water saturated gas mixture flowing slowly above the sample for 5 min. The sample and gas was in a water bath maintaining the temperature. The gas mixtures were of high purity, chemically analysed. The Lorentzian line broadenings are 511 and 369 mG/mMo2 in water at 37° C. and 23° C. respectively and 329 mG/mMo2 in blood at 23° C.

Series [6] in a line: ESR linewidth of trityl radicals (synthesis examples). The following applies: singlet.
Series [7] in a line: Overhauser enhancement of trityl radicals (synthesis examples). Conditions: H2 O, 6.9 mM, 0.012 W microwave power.
The mark [8] stands for this setting: water (isotonic saline), 23° C.
The mark [9] stands for this setting: water (isotonic saline), 37° C.

As to “Tris-(8-sodium carboxylate-2,2,6,6-tetrakis-(^2 H3 -methyl)-benzo[1,2-d:4,5-d']-bis(1,3) dithiole)methyl [symmetric trityl]”, the “A. (enhancement at infinite concentration and power)” value in series [1] is 266. Moreover, the Relaxivity is 0.21 mM⁻¹ s⁻¹ in series [2] (23° C.) and 0.15 mM⁻¹ s⁻¹ in series [2] (37° C.). For the same compound, the “2(3γe T1e)^-1, concentration dependent relaxation rate (peak-to-peak)” value was 13.2 ± 0.5 mg/mM in series [3] (setting [8]) and 17.7 ± 0.8 mg/mM in series [3] (setting [9]). For the same compound, the “2(3γe T2e)^-1, concentration dependent relaxation rate (peak-to-peak)” value was 35.4 ± 0.6 mg/mM in series [3] (setting [8]) and 33.1 ± 0.3 mg/mM in series [3] (setting [9]).

On to `[2H]C([2H])([2H])OC(=O)c1c(C(=O)OC([2H])([2H])[2H])c(C(C)(C)C)n([O])c1C(C)(C)C` [Compound 3b], for which the “ESR Line width” value in series [4] (benzene, 23° C.) was determined as 172 mg.

Regarding `[2H]C([2H])([2H])C(c1c(C(=O)OC)c(C(=O)OC)c(C(C([2H])([2H])[2H])(C([2H])([2H])[2H])C([2H])([2H])[2H])n1[O])(C([2H])([2H])[2H])C([2H])([2H])[2H]` [Compound 3c], in series [4] (benzene, 23° C.), the “ESR Line width” value amounted to 219 mg. The “influence of deuteration of the t-butyl groups alone on line width, 3a:3c” value in series [4] (degassed benzene, 22° C.) is listed as “almost no influence”.

With `CC(C)(C)c1c(C(=O)O)c(C(=O)O)c(C(C)(C)C)n1O` [Compound 4, 2.5-di-t-butyl-N-hydroxy-pyrrol-3,4-dicarboxylic acid], the “ESR line width compared with 3b” value in series [4] (upon treatment with NiOOH) is “almost identical to that of 3b”.

`CC1(C)CC(=O)CC(C)(C)N1[O]` [Compound 1, 4-oxo-2,2,6,6-tetramethyl-piperidine-1-oxyl, reference compound]: in series [4] (benzene, 23° C.), the “ESR Line width” value was 602 mg. The “reduction of the line width by perdeuteration (factor)” value in series [4] (degassed benzene, 22° C.) is listed as 2.2.

As for `CC1(C)C=C(C(=O)O)C(C)(C)N1[O]` [Compound 2b, 2,2,5,5-tetramethyl-3-pyrrolin-1-oxyl-3-carboxylic acid, reference compound], in series [4] (benzene, 23° C.), the “ESR Line width” value was determined as 1032 mg. The “reduction of the line width by perdeuteration (factor)” value in series [4] (degassed benzene, 22° C.) stood at 2.5.

On to `COC(=O)c1c(C(=O)OC)c(C(C)(C)C)n([O])c1C(C)(C)C` [Compound 3a, 2,5-di-t-butyl-3,4-dimethoxycarbonyl-pyrryloxyl], for which the “ESR Line width” value in series [4] (benzene, 23° C.) is 228 mg.

As for “Bis-(8-sodium carboxylate-2,2,6,6-tetrakis-(hydroxy-^2 H2 -methyl)-benzo[1,2-d:4,5-d']-bis(1,3) dithiole-4-yl)-mono-(8-sodium carboxylate-2,2,6,6-tetramethylbenzo [1,2-d:4,5-d']-bis(1,3) dioxole-4-yl)methyl [deuterated hydroxy trityl]”, the “T1 i.e. proton relaxivity” value in series [1] (blood sample, 37° C.) was 0.44 mM⁻¹ s⁻¹. For the same compound, the “maximum Overhauser enhancement (i.e. at infinite VHF power and infinite radical concentration)” value in series [1] (blood sample, 37° C.) amounted to 192. The “A. (infinite concentration and power), DNP enhancement” value in series [1] (blood, 37° C.) was found to be 192; in series [1] (plasma, 37° C.), 231. Moreover, the “Relaxivity at infinite concentration and power” value was 0.44 mM⁻¹ s⁻¹ in series [1] (blood, 37° C.) and 0.32 mM⁻¹ s⁻¹ in series [1] (plasma, 37° C.). In addition, the “A. (enhancement at infinite concentration and power)” value in series [1] amounted to 278. Also, the “Relaxivity at 400kHz” value in series [2] (blood, 23° C.) is 0.53 mM⁻¹ s⁻¹; in series [2] (blood, 37° C.) it was 0.44 mM⁻¹ s⁻¹; in series [2] (plasma, 23° C.), 0.48 mM⁻¹ s⁻¹; in series [2] (plasma, 37° C.) it was 0.45 mM⁻¹ s⁻¹. Moreover, the values for the Relaxivity in series [2] (23° C.) and in series [2] (37° C.) were 0.26 mM⁻¹ s⁻¹ and 0.20 mM⁻¹ s⁻¹, respectively. Further, the “2(3γe T1e)^-1, concentration dependent relaxation rate (peak-to-peak)” value in series [3] (blood, 37° C.) came to 3.6 ± 0.5 mg/mM; in series [3] (plasma, 37° C.), 2.7 ± 0.5 mg/mM; in series [3] (setting [8]) it was 2.6 ± 0.1 mg/mM; in series [3] (setting [9]), 2.8 ± 0.2 mg/mM. Moreover, the “2(3γe T2e)^-1, concentration dependent relaxation rate (peak-to-peak)” value in series [3] (blood, 37° C.) came out at 21.5 ± 0.5 mg/mM; in series [3] (plasma, 37° C.), 9.8 ± 0.5 mg/mM; in series [3] (setting [8]), 11.1 ± 0.5 mg/mM; in series [3] (setting [9]), 8.0 ± 0.2 mg/mM. Moreover, the “2(3γe T1e)^-1, relaxation rate as a function of oxygen concentration (peak-to-peak)” value in series [5] (blood, 23° C.) is 250 mg/mM; in series [5] (blood, 37° C.) it was 330 mg/mM; in series [5] (water, 23° C.), 301 mg/mM; in series [5] (water, 37° C.), 398 mg/mM. Moreover, the “2(3γe T2e)^-1, relaxation rate as a function of oxygen concentration (peak-to-peak)” value in series [5] (blood, 23° C.) was 329 mg/mM; in series [5] (blood, 37° C.), 428 mg/mM; in series [5] (water, 23° C.) it was 369 mg/mM; in series [5] (water, 37° C.), 511 mg/mM. The “(γe T1e +L T2e)^-1, square root of slope of the inverse DNP curve: constant term” value in series [5] (blood, 23° C.) stood at 12.9 mg/mM; in series [5] (blood, 37° C.) it was 15.0 mg/mM; in series [5] (water, 23° C.) it was 13.4 mg/mM; in series [5] (water, 37° C.) it was 14.2 mg/mM. For the same compound, the “Lorentzian line broadening by oxygen” value in series [5] (blood, 23° C.) is given as 329 mG/mMo2; in series [5] (water, 23° C.), 369 mG/mMo2; in series [5] (water, 37° C.), 511 mG/mMo2.

On to “Tris(8-carboxy-2,2,6,6-tetrahydroxymethylbenzo[1,2-d: 4,5-d']bis(1,3)dithiole-4-yl)methyl sodium salt [Example 14]”, for which the ESR Line width in series [6] (1.5 mM in H2 O, 100 G) came to 100 mg.

With `[2H]C([2H])([2H])OC(=O)c1c(C(=O)OC([2H])([2H])[2H])c(C(C([2H])([2H])[2H])(C([2H])([2H])[2H])C([2H])([2H])[2H])n([O])c1C(C([2H])([2H])[2H])(C([2H])([2H])[2H])C([2H])([2H])[2H]` [Compound 3d], the “ESR Line width” value was 113 mg in series [4] (benzene, 23° C.) and 113 mg in series [4] (degassed benzene, 22° C., high dilution). Further, in series [4] (degassed benzene, 22° C.), the “decrease of line width by deuteration of the alkyl groups of the ester moiety, 3c:3d (factor)” value is on record as 1.9. Moreover, the nitrogen coupling constant in series [4] (in benzene) came out at 4.4 G.

Turning to `[2H]C([2H])([2H])C1(C([2H])([2H])[2H])N([O])C(C([2H])([2H])[2H])(C([2H])([2H])[2H])C([2H])([2H])C(=O)C1([2H])[2H]` [Compound 1-d16, 4-oxo-2,2,6,6-tetramethyl-piperidine-d16-1-oxyl, reference compound], in series [4] (benzene, 23° C.), the “ESR Line width” value came out at 266 mg.

Turning to “Bis(8-ethoxycarbonyl-2,2,6,6-tetra(hydroxymethyl)benzo[1,2-d: 4,5-d']bis(1,3)dithiol-4-yl)-mono(8-ethoxycarbonyl-2,2,6,6-tetramethylbenzo[1,2-d:4,5-d']-bis(1,3)dioxol-4-yl))methyl [Example 26]”, the ESR Line width in series [6] (H2 O, 200 G) came out at 433 mg.

Turning to “Bis-(8-potassium carboxylate-2,2,6,6-tetramethylbenzo [1,2-d:4 5-d']-bis(1,3)dithiol-4-yl)-mono-(8-potassium carboxylate-2,2,6,6-tetramethylbenzo[1,2-d:4,5-d']-bis (1,3)dioxol-4-yl)methyl [Example 20]”, the ESR Line width in series [6] (H2 O, 200 G) stood at 105 mg. For the same compound, in series [7], the Overhauser enhancement was found to be 219.

Consider `[2H]C1=C(C(=O)O)C(C([2H])([2H])[2H])(C([2H])([2H])[2H])N([O])C1(C([2H])([2H])[2H])C([2H])([2H])[2H]` [Compound 2b-d13, 2,2,5,5-tetramethyl-3-pyrrolin-d13-oxyl-3-carboxylic acid, reference compound], for which the “ESR Line width” value in series [4] (benzene, 23° C.) came to 407 mg.
